Experimental data: patent US20230115176A1 (Ra Pharmaceuticals, Inc., priority 2019, published 2023)
pIC50, pKd: −log10 of the molar value. Each block holds one compound with its values, some of them ahead of it.

Assays:
[1] = target: T1, purified human C5 (Homo sapiens, UniProt P01031); assay: Red blood cell hemolysis assay, optical, absorbance 412 nm (Example 3, Table 6); format: cell-based; settings: antibody-sensitized sheep erythrocytes, 1.5% human C5 depleted sera, 0.5 nM human C5; average where replicates
[2] = target: T2, Human C5 (Homo sapiens, UniProt P01031); assay: Surface plasmon resonance (SPR), compounds on immobilized human C5 (Example 2, Table 5); format: binding; settings: lowest value where a range of compound concentrations were analyzed
T2 construct: purchased Complement Technology

[3] = target: T1, purified human C5; assay: Red blood cell (RBC) hemolysis assay, optical, absorbance 412 nm (Example 10, Table 19); format: cell-based; settings: antibody-sensitized sheep erythrocytes, […] human C5 depleted sera, 0.5 nM purified human C5, absorbance 412 nm; read-out: RBC Hemolysis IC50
[4] = target: T2, Human C5; assay: Surface plasmon resonance (SPR), immobilized human C5 (Example 9, Table 18); format: binding; settings: immobilized human C5, equilibrium dissociation constant; read-out: SPR C5 EQ KD
Description: Morrison and Boyd in “Organic Chemistry”, 6th edition, Prentice Hall (1992)] and validated for proper structure by mass spectrometry.

T1 sequence (P01031 19-1676): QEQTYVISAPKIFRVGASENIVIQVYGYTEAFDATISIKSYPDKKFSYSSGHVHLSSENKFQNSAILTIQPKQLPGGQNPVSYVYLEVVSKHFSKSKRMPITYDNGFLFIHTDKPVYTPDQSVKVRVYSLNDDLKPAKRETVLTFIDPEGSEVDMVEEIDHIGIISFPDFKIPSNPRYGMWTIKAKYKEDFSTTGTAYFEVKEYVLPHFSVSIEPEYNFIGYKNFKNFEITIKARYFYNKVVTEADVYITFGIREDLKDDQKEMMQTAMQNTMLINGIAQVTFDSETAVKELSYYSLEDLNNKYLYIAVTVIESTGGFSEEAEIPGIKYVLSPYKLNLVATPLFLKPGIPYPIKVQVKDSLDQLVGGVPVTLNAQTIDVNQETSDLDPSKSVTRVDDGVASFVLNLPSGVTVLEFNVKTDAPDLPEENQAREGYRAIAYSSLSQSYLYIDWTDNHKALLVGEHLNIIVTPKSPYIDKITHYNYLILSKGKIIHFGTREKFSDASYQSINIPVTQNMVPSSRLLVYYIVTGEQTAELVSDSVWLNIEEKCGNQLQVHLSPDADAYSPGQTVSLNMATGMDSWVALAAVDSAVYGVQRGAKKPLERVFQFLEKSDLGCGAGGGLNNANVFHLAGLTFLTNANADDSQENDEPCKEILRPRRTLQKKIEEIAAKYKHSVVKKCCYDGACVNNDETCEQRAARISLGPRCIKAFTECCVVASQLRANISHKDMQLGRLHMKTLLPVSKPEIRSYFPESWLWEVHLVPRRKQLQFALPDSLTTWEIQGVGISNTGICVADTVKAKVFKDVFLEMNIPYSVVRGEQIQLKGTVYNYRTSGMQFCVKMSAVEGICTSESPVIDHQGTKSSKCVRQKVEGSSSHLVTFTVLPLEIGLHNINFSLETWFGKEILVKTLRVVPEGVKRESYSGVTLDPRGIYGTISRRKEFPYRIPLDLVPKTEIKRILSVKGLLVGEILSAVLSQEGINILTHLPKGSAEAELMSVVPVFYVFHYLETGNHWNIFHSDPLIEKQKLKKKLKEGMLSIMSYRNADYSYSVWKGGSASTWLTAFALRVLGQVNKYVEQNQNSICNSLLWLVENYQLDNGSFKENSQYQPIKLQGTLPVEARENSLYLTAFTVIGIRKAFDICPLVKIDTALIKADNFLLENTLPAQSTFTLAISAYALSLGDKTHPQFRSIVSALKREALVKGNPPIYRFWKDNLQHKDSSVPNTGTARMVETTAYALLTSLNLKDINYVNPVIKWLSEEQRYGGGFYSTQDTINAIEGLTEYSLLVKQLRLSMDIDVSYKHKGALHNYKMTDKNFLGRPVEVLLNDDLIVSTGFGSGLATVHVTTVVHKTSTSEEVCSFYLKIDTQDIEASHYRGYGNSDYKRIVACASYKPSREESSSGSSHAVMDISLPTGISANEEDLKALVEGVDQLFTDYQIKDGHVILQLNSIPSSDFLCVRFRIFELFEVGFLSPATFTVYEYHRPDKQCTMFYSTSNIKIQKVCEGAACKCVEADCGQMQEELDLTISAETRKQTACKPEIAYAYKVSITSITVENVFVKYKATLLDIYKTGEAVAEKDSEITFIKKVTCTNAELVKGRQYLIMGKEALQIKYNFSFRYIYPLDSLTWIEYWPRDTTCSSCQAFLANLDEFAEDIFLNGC
T2 sequence (P01031 19-1676): as above

Compound: COc1ccc(NC(=O)NCc2ccnc3c2ccn3CC(=O)N2CCN(C)CC2)cc1OCCCC(C)C [Compound C5INH-0526]
- pIC50 [3]: 7.50
- pKd [4]: 7.57

Compound: COc1cc(CN(C)C(C)=O)c(NC(=O)NCc2ccnc3[nH]ccc23)cc1OCCCC(C)C [Compound C5INH-0527]
- pIC50 [3]: 5.64
- pKd [4]: 6.19

Compound: COc1ccc(NCCCN2CCOCC2)cc1CNC(=O)Nc1ccc(OC)c(OCCCC(C)C)c1 [Compound C5INH-0534]
- pIC50 [3]: 5.96
- pKd [4]: 6.59

Compound: COc1ccc(NCCCN(C)C)cc1CNC(=O)Nc1ccc(OC)c(OCCCC(C)C)c1 [Compound C5INH-0535]
- pIC50 [3]: 5.98
- pKd [4]: 6.59

Compound: COc1ccc(NC(=O)NCc2cccc3c2ncn3CCN(C)C)cc1OCCCC(C)C [Compound C5INH-0536]
- pIC50 [3]: 6.76
- pKd [4]: 7.49

Compound: COc1ccc(NC(=O)NCc2cccc3[nH]ccc23)cc1OCCCC(C)C [Compound C5INH-0537]
- pIC50 [3]: 6.86
- pKd [4]: 7.09

Compound: COc1ccc(NC(=O)NCc2ccnc3c2ccn3CC(=O)N(C)C)cc1OCCCC(C)C [Compound C5INH-0538]
- pIC50 [3]: 7.21
- pKd [4]: 7.10

Compound: COc1cc(CCCCN(C)C)c(NC(=O)N[C@@H](CO)c2ccccc2OC)cc1OCCCC(C)C [Compound C5INH-0539]
- pIC50 [3]: 6.21
- pKd [4]: 6.37

Compound: COc1ccc(NC(=O)NCc2ccnc3c2ccn3CCCN)cc1OCCCC(C)C [Compound C5INH-0544]
- pIC50 [3]: 6.88
- pKd [4]: 6.68

Compound: COc1ccc(NC(=O)NCc2ccnc3c2ccn3CC2CCCN2C)cc1OCCCC(C)C (stereo not drawn) [Compound C5INH-0545]
- pIC50 [3]: 7.05
- pKd [4]: 7.51

Compound: COc1cc(CNC(C)=O)c(NC(=O)NCc2ccnc3c2ccn3CCCN(C)C)cc1OCCCC(C)C [Compound C5INH-0547]
- pIC50 [3]: 6.54
- pKd [4]: 7.38

Compound: COc1ccc(NC(=O)NCc2ccccc2O)cc1OCCCC(C)C [SM0004]
- pIC50 [1]: 7.37
- pKd [2]: 7.55

Compound: COc1ccc(NC(=O)NCc2ccccc2O)cc1CCCCC(C)C [SM0005]
- pIC50 [1]: 7.18
- pKd [2]: 7.43

Compound: COc1ccc(NC(=O)NCc2ccccc2OC)cc1CCCCC(C)C [SM0007]
- pIC50 [1]: 6.78
- pKd [2]: 7.05

Compound: COc1ccc(NC(=O)NC(CO)c2ccc(F)cc2)cc1OCCCC(C)C (stereo not drawn) [SM0020]
- pIC50 [1]: 6.32

Compound: COc1cccc(C(CO)NC(=O)Nc2ccc(OC)c(OCCCC(C)C)c2)c1 (stereo not drawn) [SM0028]
- pIC50 [1]: 6.05

Compound: COc1ccc(CNC(=O)Nc2ccc(OC)c(OCCCC(C)C)c2)cc1 [SM0041]
- pIC50 [1]: 5.75

Compound: COc1ccc(NC(=O)N[C@@H](CO)c2ccccc2)cc1OCCCCl [SM0051]
- pIC50 [1]: 5.51

Compound: COc1ccc(NC(=O)NC(CO)c2cnn(C)c2)cc1OCCCC(C)C (stereo not drawn) [SM0055]
- pIC50 [1]: 5.46

Compound: COc1ccc(NC(=O)N[C@@H](CO)c2ccccc2)cc1Br [SM0060]
- pIC50 [1]: 5.35

Compound: COc1ccc(NC(=O)NCc2cccc(S(C)(=O)=O)c2)cc1OCCCC(C)C [SM0079]
- pIC50 [1]: 4.90

Compound: COc1ccc(NC(=O)NC(c2ccccc2F)C(C)O)cc1OCCCC(C)C (stereo not drawn) [SM0082]
- pIC50 [1]: 4.84

Compound: COc1ccc(NC(=O)N[C@@H](CO)c2ccccc2)cc1OCC(F)(F)F [SM0085]
- pIC50 [1]: 4.79

Compound: COc1ccc(NC(=O)NCc2ccc3ccccc3n2)cc1OCCCC(C)C [SM0086]
- pIC50 [1]: 4.78

Compound: COc1ccc(NC(=O)N[C@@H](CO)c2ccccc2)cc1OCc1ccccc1 [SM0088]
- pIC50 [1]: 4.73

Compound: COc1ccc(NC(=O)NCc2ccc(Br)cc2)cc1OCCCC(C)C [SM0089]
- pKd [2]: 5.51

Compound: COc1ccc(NC(=O)NCc2cncnc2)cc1OCCCC(C)C [SM0090]
- pKd [2]: 5.68

Compound: COc1ccc(NC(=O)N[C@@H](CO)C(C)(C)C)cc1OCCCC(C)C [SM0091]
- pKd [2]: 6.00

Compound: COc1ccc(NC(=O)NC2CCCCC2O)cc1OCCCC(C)C (stereo not drawn) [SM0097]
- pKd [2]: 5.66

Compound: COc1ccc(NC(=O)NCc2ccccc2CN(C)C)cc1OCCCC(C)C [SM0100]
- pKd [2]: 6.92

Compound: COc1ccc(NC(=O)N[C@H]2c3ccccc3C[C@@H]2O)cc1OCCCC(C)C [SM0103]
- pKd [2]: 5.74

Compound: COc1ccc(NC(=O)NC(c2ccccc2F)[C@@H](O)CO)cc1OCCCC(C)C (stereo partly drawn) [SM0106]
- pKd [2]: 5.57

Compound: COc1ccc(NC(=O)N[C@@H](C)c2ccc(Br)cc2)cc1OCCCC(C)C [SM0108]
- pKd [2]: 5.49

Compound: COc1ccc(NC(=O)N(C)CCO)cc1OCCCC(C)C [SM0109]
- pKd [2]: 5.42

Compound: CCCOc1cc(NC(=O)O[C@@H](C)c2ccccc2)ccc1OC [SM0110]
- pKd [2]: 5.41

Compound: COc1ccc(NC(=O)NCC2CCC(F)(F)CC2)cc1OCCCC(C)C [SM0111]
- pKd [2]: 5.33

Compound: COc1ccc(NC(=O)NCc2ccc(S(C)(=O)=O)cc2)cc1OCCCC(C)C [SM0113]
- pKd [2]: 6.22

Compound: COc1ccc(NC(=O)NCCc2ccccc2)cc1OCCCC(C)C [SM0117]
- pKd [2]: 5.12

More lines, main results first:

- pKd [2]: 6.49
Compound: COc1ccc(NC(=O)NC(CO)c2ccc(Cl)cc2)cc1OCCCC(C)C (stereo not drawn)
- pIC50 [1]: 5.47

- pKd [2]: 7.85
Compound: COc1ccc(NC(=O)NC(CO)c2ccccc2OC)cc1OCCCC(C)C (stereo not drawn) [SM0003]
- pIC50 [1]: 7.57

- pKd [2]: 6.27
Compound: COc1ccc(NC(=O)NC(CO)Cc2ccccc2)cc1OCCCC(C)C (stereo not drawn) [SM0092]

- pKd [2]: 6.62
Compound: CNC(=O)[C@H](NC(=O)Nc1ccc(OC)c(OCCCC(C)C)c1)c1ccccc1 [SM0093]

- pKd [2]: 6.42
Compound: COc1ccc(NC(=O)N[C@@H](CO)c2ccccc2)cc1OCCN1CCC(O)CC1 [SM0094]

- pKd [2]: 5.80
Compound: COc1ccc(NC(=O)N[C@@H](CO)c2ccccc2)cc1OCc1ccccn1 [SM0095]

- pKd [2]: 5.68
Compound: CCCCn1ncc2ccc(NC(=O)N[C@@H](CO)c3ccccc3)cc21 [SM0096, 1-(1-butylindazol-6-yl)-3-[(1R)-2-hydroxy-1-phenyl-ethyl]urea]

- pKd [2]: 5.42
Compound: COc1ccc(NC(=O)N[C@@H](CO)c2ccccc2)cc1OCc1ccncc1 [SM0098]

- pKd [2]: 5.24
Compound: O=C(Nc1ccc2c(c1)OC(F)(F)O2)N[C@@H](CO)c1ccccc1 [SM0099]

- pKd [2]: 6.82
Compound: COc1ccc(NC(=O)N[C@@H](CO)c2ccccc2)cc1OCCC1CC1 [SM0101]

- pKd [2]: 5.77
Compound: COc1ccc(NC(=O)N[C@@H](C(N)=O)c2ccccc2)cc1OCCCC(C)C [SM0102]

- pKd [2]: 5.59
Compound: COc1ccc(NC(=O)N[C@@H](CO)c2ccccc2)cc1OCCN(C)C [SM0105, 1-[3-[2-(dimethylamino)ethoxy]-4-methoxy-phenyl]-3-[(1R)-2-hydroxy-1-phenyl-ethyl]urea]

- pKd [2]: 5.49
Compound: COc1ccc(NC(=O)N[C@@H](C)c2ccccc2)cc1OCC(C)(C)N(C)C [SM0107]

- pKd [2]: 5.26
Compound: CCCCCCOc1ccc(NC(=O)N[C@@H](CO)c2ccccc2)cc1 [SM0112]

- pKd [2]: 5.19
Compound: COc1ccc(NC(=O)N[C@@H](CO)c2ccccc2)cc1OCc1cncnc1 [SM0114, 1-[(1R)-2-hydroxy-1-phenyl-ethyl]-3-[4-methoxy-3-(pyrimidin-5-ylmethoxy)phenyl] urea]

- pKd [2]: 5.17
Compound: COc1ccc(NC(=O)N[C@@H](CO)c2ccccc2)cc1OCCN1CCN(C)CC1 [SM0115]

- pKd [2]: 6.16
Compound: CCCCN(C)C(=O)c1cccc(NC(=O)N[C@@H](CO)c2ccccc2)c1 [SM0116, N-butyl-3-[[(1R)-2-hydroxy-1-phenyl-ethyl]carbamoylamino]-N-methyl-benzamide]

- pKd [2]: 5.09
Compound: COc1ccc(NC(=O)N[C@H](CCO)c2ccccc2)cc1OCCCC(C)C [SM0118]

- pKd [2]: 6.08
Compound: COc1ccc(NC(=O)N[C@@H](CO)c2ccccc2)cc1OCCCC#N [SM0119]

- pKd [2]: 5.02
Compound: COC[C@H](NC(=O)Nc1ccc(OC)c(OCCCC(C)C)c1)c1ccccc1 [SM0120]

- pKd [2]: 5.02
Compound: COc1ccc(NC(=O)NC(CN(C)C)c2ccccc2)cc1OCCCC(C)C (stereo not drawn) [SM0121]
